This is an account of results in US20170356048A1, “METHOD FOR PREDICTING RECEPTIVITY TO TARGETED ANTICANCER DRUG” (CBSBIOSCIENCE INC., priority 2014, published 2017).

One test relates to liver cancer. Description: Rate of response to sorafenib treatment (reduction in tumor size by CT and MRI, mRECIST) in liver cancer patients stratified by risk score or marker gene expression. It is filed as in vivo, human. As to the method: In the following manner, RNA was extracted from each of the tissues and synthesized into cDNA.
The risk scores of a total of 29 liver cancer patients were calculated, and the risk score distribution of responders to sorafenib and the risk score distribution of non-responders to sorafenib were examined. Herein, whether or not sorafenib would have a therapeutic effect was determined based on the degree of reduction in tumor size by CT and MRI imagings, and criteria for the determination followed mRECIST (modified Response Evaluation Criteria in Solid tumors) criteria version 1.1.
In addition, after stratification of the liver cancer patients by classification, the rate of response to sorafenib treatment was examined in order to confirm improvement in clinical responses, and the results of the examination are shown in Table 5 below.

Another test concerns hepatocellular carcinoma. The settings on record: cited from earlier work.

For the compound `CNC(=O)c1cc(Oc2ccc(NC(=O)Nc3ccc(Cl)c(C(F)(F)F)c3)cc2)ccn1` [sorafenib], the “Response rate (%)” value in the test on liver cancer (liver cancer patients with CDH1 expression ≦0.0067, 3 responders, 13 non-responders) was 18.75%; in the test on liver cancer (liver cancer patients with ID2 expression ≦0.4965, 3 responders, 12 non-responders), 20.0%; with liver cancer (liver cancer patients with MMP9 expression >0.0433, 3 responders, 15 non-responders) it was 16.67%; with liver cancer (liver cancer patients with TCF3 expression >0.3711, 2 responders, 1 non-responder) it was 66.67%; in the test on liver cancer (liver cancer patients with risk score (CDH1, ID2, MMP9, TCF3) >87.59, 3 responders, 8 non-responders) it was 27.27%. Also, in the test on hepatocellular carcinoma (hepatocellular carcinoma, unselected patients), the treatment rate is reported as 2-3%. Further, in the test with hepatocellular carcinoma (known value, NEJM2008 359(4):378-390), the therapeutic effect entry was “about 2.3%”.
